Test results published in patent US11083196B2, “Microbiocidal oxadiazole derivatives” (SYNGENTA PARTICIPATIONS AG, priority 2016, dated 2021).

Assays:
[1] = tested on: Glomerella lagenarium (Colletotrichum lagenarium); test: Fungicidal activity against Glomerella lagenarium (Colletotrichum lagenarium), liquid culture / cucumber / preventative (anthracnose); type: cell-based; conditions: Colletotrichum orbiculare, liquid culture (PDB), growth inhibition measured photometrically 3-4 days after application, compared to untreated control
Description: Mycelia fragments or conidia suspensions of a fungus, prepared either freshly from liquid cultures of the fungus or from cryogenic storage, are directly mixed into nutrient broth. DMSO solutions of the test compound (max. 10 mg/ml) is diluted with 0.025% Tween20 by a factor of 50 and 10 μl of this solution is pipetted into a microtiter plate (96-well format). The nutrient broth containing the fungal spores/mycelia fragments is then added to give an end concentration of the tested compound. The test plates are incubated in the dark at 24° C. and 96% relative humidity. The inhibition of fungal growth is determined photometrically after 2 to 7 days, depending on the pathosystem, and percent antifungal activity relative to the untreated check is calculated. Conidia of the fungus from cryogenic storage are directly mixed into nutrient broth (PDB potato dextrose broth). After placing a (DMSO) solution of test compound into a microtiter plate (96-well format), the nutrient broth containing the fungal spores is added. The test plates are incubated at 24° C. and the inhibition of growth is measured photometrically 3-4 days after application.

[2] = tested on: Puccinia recondita f. sp. tritici; test: Fungicidal activity against Puccinia recondita f. sp. tritici / wheat / leaf disc preventative (brown rust); type: in vivo; conditions: foliar, 168 h, wheat leaf segments cv. Kanzler, inoculated 1 day after application, assessed 7-9 days after application, compared to untreated control
Description: Leaf disks or leaf segments of various plant species are cut from plants grown in a greenhouse. The cut leaf disks or segments are placed in multiwell plates (24-well format) onto water agar. The leaf disks are sprayed with a test solution before (preventative) or after (curative) inoculation. Compounds to be tested are prepared as DMSO solutions (max. 10 mg/ml) which are diluted to the appropriate concentration with 0.025% Tween20 just before spraying. The inoculated leaf disks or segments are incubated under defined conditions (temperature, relative humidity, light, etc.) according to the respective test system. A single evaluation of disease level is carried out 3 to 14 days after inoculation, depending on the pathosystem. Percent disease control relative to the untreated check leaf disks or segments is then calculated. Wheat leaf segments cv. Kanzler are placed on agar in multiwell plates (24-well format) and sprayed with the formulated test compound diluted in water. The leaf disks are inoculated with a spore suspension of the fungus 1 day after application. The inoculated leaf segments are incubated at 19° C. and 75% rh under a light regime of 12 h light/12 h darkness in a climate cabinet and the activity of a compound is assessed as percent disease control compared to untreated when an appropriate level of disease damage appears in untreated check leaf segments (7-9 days after application).

melting point | Compound | inhibition of growth at 20 ppm [1] | pest or weed control at 200 ppm [2]
79 to 82 °C | FC(F)(F)c1nc(-c2ccc(C3CC(C4CCCCC4)=NO3)cc2)no1 (stereo not drawn) [Compound A-7, 3-[4-(3-cyclohexyl-4,5-dihydroisoxazol-5-yl)phenyl]-5-(trifluoromethyl)-1,2,4-oxadiazole] | ≥ 80% | –
65 to 69 °C | FC(F)(F)C1=NOC(c2ccc(-c3noc(C(F)(F)F)n3)cc2)C1 (stereo not drawn) [Compound A-14, 5-(trifluoromethyl)-3-[4-[3-(trifluoromethyl)-4,5-dihydroisoxazol-5-yl]phenyl]-1,2,4-oxadiazole] | ≥ 80% | –
154.4 to 158.5 °C | Cl.FC(F)(F)c1nc(-c2ccc(C3CCCN3)cc2)no1 (stereo not drawn) [Compound A-34, 3-(4-pyrrolidin-1-ium-2-ylphenyl)-5-(trifluoromethyl)-1,2,4-oxadiazole; chloride] | – | ≥ 80%
– | COC(=O)C1(c2ccc(-c3noc(C(F)(F)F)n3)cc2)C(C)=C(C#N)C(=O)N1C (stereo not drawn) [Compound A-41, methyl 4-cyano-1,3-dimethyl-5-oxo-2-[4-[5-(trifluoromethyl)-1,2,4-oxadiazol-3-yl]phenyl]pyrrole-2-carboxylate] | ≥ 80% | –
– | COc1ccccc1C1CC(c2ccc(-c3noc(C(F)(F)F)n3)cc2)=NO1 (stereo not drawn) [Compound A-48, 3-[4-[5-(2-methoxyphenyl)-4,5-dihydroisoxazol-3-yl]phenyl]-5-(trifluoromethyl)-1,2,4-oxadiazole] | ≥ 80% | –
– | FC(F)(F)c1nc(-c2ccc(C3CC(c4ccncc4)=NO3)cc2)no1 (stereo not drawn) [Compound A-49, 3-[4-[3-(4-pyridyl)-4,5-dihydroisoxazol-5-yl]phenyl]-5-(trifluoromethyl)-1,2,4-oxadiazole] | ≥ 80% | –
139 to 142 °C | FC(F)(F)c1nc(-c2ccc(C3CC(c4ccccc4)=NO3)cc2)no1 (stereo not drawn) [Compound A-50, 3-[4-(3-phenyl-4,5-dihydroisoxazol-5-yl)phenyl]-5-(trifluoromethyl)-1,2,4-oxadiazole] | – | –
94 to 96 °C | FC(F)(F)c1nc(-c2ccc(N3CCCCO3)cc2)no1 [Compound B-1, 2-[4-[5-(trifluoromethyl)-1,2,4-oxadiazol-3-yl]phenyl]oxazinane] | – | –
143 to 146 °C | FC(F)(F)c1nc(-c2ccc(-c3cc(C4CC4)no3)cc2)no1 [Compound C-10, 3-[4-(3-cyclopropylisoxazol-5-yl)phenyl]-5-(trifluoromethyl)-1,2,4-oxadiazole] | – | –
142 to 143 °C | FC(F)(F)c1nc(-c2ccc(-c3nc(-c4cccnc4)cs3)cc2)no1 [Compound C-12, 3-[4-[4-(3-pyridyl)thiazol-2-yl]phenyl]-5-(trifluoromethyl)-1,2,4-oxadiazole] | – | –
200 to 205 °C | CCNC(=O)Nc1cccc(-c2ccc(-c3noc(C(F)(F)F)n3)cc2)n1 [Compound D-1, 1-ethyl-3-[6-[4-[5-(trifluoromethyl)-1,2,4-oxadiazol-3-yl]phenyl]-2-pyridyl]urea] | – | –
190 to 195 °C | CCNC(=O)Nc1ccc(-c2ccc(-c3noc(C(F)(F)F)n3)cc2)cn1 [Compound D-2, 1-ethyl-3-[5-[4-[5-(trifluoromethyl)-1,2,4-oxadiazol-3-yl]phenyl]-2-pyridyl]urea] | – | –
180 to 185 °C | CCNC(=O)Nc1cc(-c2ccc(-c3noc(C(F)(F)F)n3)cc2)ccn1 [Compound D-3, 1-ethyl-3-[4-[4-[5-(trifluoromethyl)-1,2,4-oxadiazol-3-yl]phenyl]-2-pyridyl]urea] | – | –
125 to 130 °C | O=C(Nc1cccc(-c2ccc(-c3noc(C(F)(F)F)n3)cc2)n1)C(F)(F)F [Compound D-4, 2,2,2-trifluoro-N-[6-[4-[5-(trifluoromethyl)-1,2,4-oxadiazol-3-yl]phenyl]-2-pyridyl]acetamide] | ≥ 80% | –
75 to 80 °C | Fc1cccc(-c2ccc(-c3noc(C(F)(F)F)n3)cc2)n1 [Compound D-5, 3-[4-(6-fluoro-2-pyridyl)phenyl]-5-(trifluoromethyl)-1,2,4-oxadiazole] | ≥ 80% | –
120 to 125 °C | CCNc1cccc(-c2ccc(-c3noc(C(F)(F)F)n3)cc2)n1 [Compound D-8, N-ethyl-6-[4-[5-(trifluoromethyl)-1,2,4-oxadiazol-3-yl]phenyl]pyridin-2-amine] | ≥ 80% | –

melting point | Compound | inhibition of growth at 20 ppm [1] | pest or weed control at 200 ppm [2]
130 to 135 °C | CCNc1cc(-c2ccc(-c3noc(C(F)(F)F)n3)cc2)ccn1 [Compound D-9, N-ethyl-4-[4-[5-(trifluoromethyl)-1,2,4-oxadiazol-3-yl]phenyl]pyridin-2-amine] | – | –
150 to 155 °C | O=C(C1CC1)N(C(=O)C1CC1)c1ccc(-c2ccc(-c3noc(C(F)(F)F)n3)cc2)cn1 [Compound D-10, N-(cyclopropanecarbonyl)-N-[5-[4-[5-(trifluoromethyl)-1,2,4-oxadiazol-3-yl]phenyl]-2-pyridyl]cyclopropane carboxamide] | – | –
175 to 180 °C | O=C(Nc1ccc(-c2ccc(-c3noc(C(F)(F)F)n3)cc2)cn1)C1CC1 [Compound D-11, N-[5-[4-[5-(trifluoromethyl)-1,2,4-oxadiazol-3-yl]phenyl]-2-pyridyl]cyclopropane carboxamide] | – | –
135 to 140 °C | O=C(Nc1ccc(-c2ccc(-c3noc(C(F)(F)F)n3)cc2)cn1)C(F)(F)F [Compound D-13, 2,2,2-trifluoro-N-[5-[4-[5-(trifluoromethyl)-1,2,4-oxadiazol-3-yl]phenyl]-2-pyridyl]acetamide] | ≥ 80% | –
125 to 130 °C | O=C(Nc1cccc(-c2ccc(-c3noc(C(F)(F)F)n3)cc2)n1)C1CC1 [Compound D-14, N-[6-[4-[5-(trifluoromethyl)-1,2,4-oxadiazol-3-yl]phenyl]-2-pyridyl]cyclopropane carboxamide] | – | –
120 to 125 °C | O=C(C1CC1)N(C(=O)C1CC1)c1cc(-c2ccc(-c3noc(C(F)(F)F)n3)cc2)ccn1 [Compound D-16, N-(cyclopropanecarbonyl)-N-[4-[4-[5-(trifluoromethyl)-1,2,4-oxadiazol-3-yl]phenyl]-2-pyridyl]cyclopropane carboxamide] | – | –
140 to 145 °C | O=C(Nc1cc(-c2ccc(-c3noc(C(F)(F)F)n3)cc2)ccn1)C1CC1 [Compound D-17, N-[4-[4-(5-(triftuoromethyl)-1,2,4-oxadiazol-3-yl]phenyl]-2-pyridyl]cyclopropane carboxamide] | – | –
195 to 200 °C | Nc1cc(-c2ccc(-c3noc(C(F)(F)F)n3)cc2)ccn1 [Compound D-18, 4-[4-[5-(trifluoromethyl)-1,2,4-oxadiazol-3-yl]phenyl]pyridin-2-amine] | – | –
120 to 125 °C | CCNc1ccc(-c2ccc(-c3noc(C(F)(F)F)n3)cc2)cn1 [Compound D-20, N-ethyl-5-[4-[5-(trifluoromethyl)-1,2,4-oxadiazol-3-yl]phenyl]pyridin-2-amine] | – | –
135 to 140 °C | FC(F)(F)c1nc(-c2ccc(-c3ccc(NC4CC4)nc3)cc2)no1 [Compound D-21, N-cyclopropyl-5-[4-[5-(trifluoromethyl)-1,2,4-oxadiazol-3-yl]phenyl]pyridin-2-amine] | – | –
115 to 120 °C | FC(F)(F)c1nc(-c2ccc(-c3cccc(Cl)n3)cc2)no1 [Compound D-22, 3-[4-(6-chloro-2-pyridyl)phenyl]-5-(trifluoromethyl)-1,2,4-oxadiazole] | – | –
150 to 155 °C | FC(F)(F)c1nc(-c2ccc(-c3ccc(N4CCOCC4)nc3)cc2)no1 [Compound D-23, 4-[5-[4-[5-(trifluoromethyl)-1,2,4-oxadiazol-3-yl]phenyl]-2-pyridyl]morpholine] | – | –
100 to 105 °C | FC(F)(F)c1nc(-c2ccc(-c3cccc(N4CCOCC4)n3)cc2)no1 [Compound D-24, 4-[6-[4-[5-(trifluoromethyl)-1,2,4-oxadiazol-3-yl]phenyl]-2-pyridyl]morpholine] | – | –
95 to 100 °C | FC(F)(F)c1nc(-c2ccc(-c3ccnc(N4CCOCC4)c3)cc2)no1 [Compound D-25, 4-[4-[4-[5-(trifluoromethyl)-1,2,4-oxadiazol-3-yl]phenyl]-2-pyridyl]morpholine] | ≥ 80% | –
140 to 145 °C | FC(F)(F)c1nc(-c2ccc(-c3ccc(Cl)nc3)cc2)no1 [Compound D-27, 3-[4-(6-chloro-3-pyridyl)phenyl]-5-(trifluoromethyl)-1,2,4-oxadiazole] | – | –
